# Measurements from patent US4416884A, “Piperazinylbenzoheterocyclic compounds” (Otsuka Pharmaceutical Co., Ltd., priority 1978, dated 1983).
# Like-named read-outs stand apart in the source and are kept apart here.
# Experiments:
# Test in all cases: antimicrobial activity, serial dilution method on agar plate
# Assay type in all cases: cell-based
# [1] = test system: Salmonella typhi 0-901 (NCTC 8393); settings: Salmonella enterica
# Method: (§1) The antimicrobial activity of the following test compounds on various test organisms listed below was determined by the serial dilution method on agar plate (Heart Infusion agar produced by Difco Co.) (see CHEMOTHERAPY 22, pp. 1126-1128 (1974)), and the minimum inhibitory concentrations (mcg/ml) obtained are shown in Table 1 below.
# (§2) A sample of each test organism was prepared so that the population of the organism was 1×10^8 cells/ml (O.D. 660 mμ=0.07 to 0.16) and 1×10^6 cells/ml (which was obtained by diluting the above 1×10^8 cells/ml preparation).
# [2] = test system: Staphylococcus aureus FDA 209 P; settings: read-out: Minimum Inhibitory Concentration
# Method: as §1, §2
# Escherichia Coli NIHJ = settings: inoculum 1 × 10^8 cells/ml, read-out: Minimum Inhibitory Concentration
# Method: as §1, §2
# [3] = test system: Serattia marcescens IFO 12648
# Method: as §1, §2
# [4] = test system: Pseudomonas aeruginosa ATCC 10145
# Method: as §1, §2
# Klebsiella pneumoniae = test system: Klebsiella pneumoniae
# Method: as §1, §2
# [5] = test system: Pseudomonas aeruginosa NCTC 10490
# Method: as §1, §2
# Proteus rettgeri NIH 96 = settings: Providencia rettgeri, read-out: Minimum Inhibitory Concentration
# Method: as §1, §2
# [6] = test system: Pseudomonas aeruginosa E-2; settings: read-out: Minimum Inhibitory Concentration
# Method: as §1, §2
# Shigella Sonnei EW 33 = settings: read-out: Minimum Inhibitory Concentration
# Method: as §1, §2
# [7] = test system: Escherichia Coli NIHJ JC-2 (IFO 12734); settings: Escherichia coli, read-out: Minimum Inhibitory Concentration
# Method: as §1, §2
# [8] = test system: Streptococcus pyogenes IID S-23; settings: read-out: Minimum Inhibitory Concentration
# Method: as §1, §2
# [9] = read-out: Minimum Inhibitory Concentration, inoculum 1 × 10^8 cells/ml
# [10] = FDA209, inoculum 1 × 10^8 cells/ml
# [11] = inoculum 1 × 10^8 cells/ml, read-out: Minimum Inhibitory Concentration
# [12] = NCTC10490, inoculum 1 × 10^8 cells/ml, read-out: Minimum Inhibitory Concentration
# [13] = NIH96, inoculum 1 × 10^8 cells/ml
# [14] = ATCC10145, inoculum 1 × 10^8 cells/ml, read-out: Minimum Inhibitory Concentration
# [15] = IIDS23, inoculum 1 × 10^8 cells/ml
# [16] = inoculum 1 × 10^6 cells/ml, read-out: Minimum Inhibitory Concentration
SMILES,"MIC [1, 9]","MIC [2, 10]",MIC (Escherichia Coli NIHJ),"MIC [3, 11]","MIC [5, 12]",MIC (Proteus rettgeri NIH 96; [13]),"MIC ([6]; E2, inoculum 1 × 10^8 cells/ml)",MIC (Shigella Sonnei EW 33; inoculum 1 × 10^8 cells/ml),"MIC [4, 14]",MIC (Klebsiella pneumoniae; [11]),MIC ([7]; inoculum 1 × 10^8 cells/ml),"MIC [8, 15]",also measured
CC(=O)N1CCN(c2ccc3c(=O)c(C(=O)NC(C(=O)NC4C(=O)N5C4SC(C)(C)C5C(=O)O)c4ccccc4)cn4c3c2CCC4)CC1 (stereo not drawn) [H],6.3 µg/mL,1.6 µg/mL,6.3 µg/mL,50 µg/mL,3.1 µg/mL,25 µg/mL,25 µg/mL,12.5 µg/mL,–,–,–,–,"MIC ([4]; ATCC10145, read-out: Minimum Inhibitory Concentration, inoculum 1 × 10^8 cells/ml): 12.5 µg/mL; MIC (Klebsiella pneumoniae; [9]): 12.5 µg/mL"
"CC1(C)SC2C(NC(=O)C(NC(=O)c3cn4c5c(c(N6CCNCC6)cc(Cl)c5c3=O)CCC4)c3ccccc3)C(=O)N2C1C(=O)O (stereo not drawn) [Compound K, 6-{2-[10-Chloro-8-(1-piperazinyl)-6,7-dihydro-1-oxo-1H,5H--benzo[ij]quinolizine-2-carboxamido]-2-phenylacetamido}-3,3-dimethyl-7-oxo-4-thia-1-azabicyclo[3,2,0]heptane-2-carboxylic acid, reference compound]",3.1 µg/mL,0.8 µg/mL,6.3 µg/mL,12.5 µg/mL,3.1 µg/mL,12.5 µg/mL,25 µg/mL,3.1 µg/mL,12.5 µg/mL,6.3 µg/mL,–,–,–
"CC1Cc2c(N3CCN(C)CC3)c(Cl)cc3c(=O)c(C(=O)O)cn1c23 (stereo not drawn) [Compound Z, 8-Chloro-9-(4-methyl-1-piperazinyl)-2-methyl-6-oxo-1,2-dihydro-6H--pyrrolo[3,2,1-ij]-quinoline-5-carboxylic acid]",0.1 µg/mL,0.8 µg/mL,–,0.4 µg/mL,3.1 µg/mL,0.4 µg/mL,6.3 µg/mL,0.2 µg/mL,3.1 µg/mL,0.2 µg/mL,0.2 µg/mL,12.5 µg/mL,"MIC ([7]; inoculum 1 × 10^6 cells/ml): 0.2 µg/mL; MIC ([8]; IIDS23, inoculum 1 × 10^6 cells/ml): 6.3 µg/mL; MIC ([1]; read-out: Minimum Inhibitory Concentration, inoculum 1 × 10^6 cells/ml): 0.1 µg/mL; MIC ([2]; FDA209, inoculum 1 × 10^6 cells/ml): 0.4 µg/mL; MIC [3, 16]: 0.4 µg/mL; MIC ([4]; ATCC10145, inoculum 1 × 10^6 cells/ml, read-out: Minimum Inhibitory Concentration): 3.1 µg/mL; MIC (Klebsiella pneumoniae; [16]): 0.2 µg/mL; MIC ([5]; NCTC10490, inoculum 1 × 10^6 cells/ml, read-out: Minimum Inhibitory Concentration): 3.1 µg/mL; MIC (Proteus rettgeri NIH 96; NIH96, inoculum 1 × 10^6 cells/ml): 0.2 µg/mL; MIC ([6]; E2, inoculum 1 × 10^6 cells/ml): 3.1 µg/mL; MIC (Shigella Sonnei EW 33; inoculum 1 × 10^6 cells/ml): 0.2 µg/mL"
COc1ccc(CN2CCN(c3c(Cl)cc4c(=O)c(C(=O)O)cn5c4c3CCC5C)CC2)cc1 (stereo not drawn) [g],0.78 µg/mL,0.78 µg/mL,–,0.39 µg/mL,12.5 µg/mL,0.1 µg/mL,12.5 µg/mL,1.56 µg/mL,6.25 µg/mL,0.78 µg/mL,0.78 µg/mL,3.13 µg/mL,–
CC1CCc2c(N3CCN(CCO)CC3)c(F)cc3c(=O)c(C(=O)O)cn1c23 (stereo not drawn) [f],0.39 µg/mL,0.78 µg/mL,–,0.39 µg/mL,12.5 µg/mL,0.2 µg/mL,12.5 µg/mL,0.78 µg/mL,6.25 µg/mL,0.78 µg/mL,0.39 µg/mL,3.13 µg/mL,–
CC1CCc2c(N3CCN(C(=O)C(F)(F)F)CC3)c(Cl)cc3c(=O)c(C(=O)O)cn1c23 (stereo not drawn) [b],0.39 µg/mL,3.13 µg/mL,–,–,–,0.2 µg/mL,3.13 µg/mL,1.56 µg/mL,3.13 µg/mL,0.39 µg/mL,0.39 µg/mL,6.25 µg/mL,"MIC [3, 9]: 1.56 µg/mL; MIC ([5]; NCTC10490, read-out: Minimum Inhibitory Concentration, inoculum 1 × 10^8 cells/ml): 1.56 µg/mL"
